Test results reported in patent US20100286262A1, “PTGS2 HAPLOTYPES” (priority 2007, published 2010).

Experiments:
[1] = system: colorectal cancer patients (stage II/III) after potentially curative therapy; assay: VICTOR trial: safety (serious adverse events, early discontinuations), treated population; assay type: in vivo
Protocol: (§1) This was a phase III randomised, placebo-controlled double-blind trial of R in patients after potentially-curative surgery and completion of adjuvant therapy for stage II/III CRC. 7000 patients were planned to receive 25 mg R daily or an identical placebo (P) for 2 or 5 years, however the trial was terminated early after the worldwide withdrawal of R. A revised protocol and statistical analysis plan permitted detection of a reduction (HR=0.75) in risk of death with 87% power, with one pre-planned event-driven interim analysis.
(§2) Data-collection forms were amended to solicit baseline data on cardiovascular risk factors, for all patients After worldwide withdrawal of rofecoxib all investigators and patients were informed, study treatment was stopped, and follow-up continued, at 3, 6, 12, 18 and 24 months after randomisation and annually thereafter. Patients received a colonoscopy 1-2 years after primary surgery and 2- to 3-yearly thereafter; a CT scan about 1 year after surgery; clinical examination and routine blood tests at outpatient visits. All recurrences were confirmed by CT or MRI scan and patients were flagged for survival with the UK's Office of National Statistics. Adverse event data were recorded systematically throughout the study and were reviewed by the trials team (RM, DJK and MJL) to clarify diagnoses.
The original study was powered to detect a reduction in risk of death between treatments for stage II and stage III separately, (hazard ratio 0.80), with type I error 0.05. The modified statistical plan, after premature closure with 2434 patients, permitted detection of a reduction in risk of death of HR 0.75, 87% power, with type I error 0.05, and one interim analysis specified according to an O'Brien-Fleming alpha-spending rule when there were 350 events. The threshold for statistical significance for OS at this analysis is p<0.01325. OS, the primary endpoint, was measured from randomisation to death from any cause. Secondary endpoints include DFS, measured from randomisation to recurrence or death from any cause and recurrence-free survival, measured from randomisation to recurrence and/or colorectal cancer death. This is the report of the interim analysis, with 368 deaths. Kaplan-Meier curves and log-rank analysis were used for comparisons of OS and DFS. Subgroups were examined using HR plots. Hazard ratios and their confidence intervals were calculated from log-rank statistics and variances. Cox's proportional hazards models were used to estimate the treatment effect adjusted by prognostic factors. All reported p-values are two-sided. For analysis of OS, patients not reported as dead were censored at their last known date alive. For analysis of DFS, patients who were alive and recurrence-free were censored at their last known recurrence-free date. For analysis of DFS in first year after randomisation, patients who were alive and recurrence-free at one year were censored at that time. Numbers of SAEs were compared using a normal approximation to the Poisson distribution.
Serious Adverse Events (SAEs) were collected for each patient from enrolment until the data lock of November 2007. Cardiovascular thrombotic events have previously been reported in detail. In summary, of 23 confirmed cardiovascular thrombotic events that occurred within the treatment period or within 14 days after cessation, 16 occurred in the R arm and 7 in the P arm with an estimated relative risk of 2.66 (95% confidence intervals (CI) 1.03-6.86; p=0.04). These included fatal and nonfatal myocardial infarction, unstable angina, sudden death from cardiac causes, fatal and nonfatal ischemic stroke, transient ischemic attack, peripheral arterial thrombosis, peripheral venous thrombosis, and pulmonary embolism. Fourteen more cardiovascular thrombotic events, six in the R arm and eight in the P arm, were reported within the two years after the trial closure, with an overall total period unadjusted relative risk of 1.50 (95% CI 0.76-2.94; p=0.24). […]

[2] = system: colorectal cancer patients (stage II/III) after potentially curative therapy; assay: VICTOR phase III randomised placebo-controlled trial of rofecoxib: overall survival; assay type: in vivo, human
Protocol: as §1
Patients were randomly assigned to receive R or P at 151 hospitals in the United Kingdom. Inclusion criteria included: histologically proven stage II and III colorectal carcinoma in patients who had undergone complete resection of the primary tumour; WHO Performance Status 0 or 1; haematological, liver and renal function within the normal range. All patients had completed potentially curative therapy (surgery+/−radiotherapy+/−chemotherapy) 12 or fewer weeks previously and had given written informed consent. Patients with active peptic ulceration or gastrointestinal bleeding in the past year, a history of adverse reactions to NSAIDs, or a known sensitivity to R were excluded, as were those receiving long-term NSAID therapy (except for low-dose aspirin, <100 mg per day), those younger than 18 years, and women who were pregnant, lactating, or premenopausal but not using contraception. Patients with a history of cancer (other than adequately treated in situ carcinoma of the cervix, basal or squamous-cell carcinoma), inflammatory bowel disease, or severe congestive heart failure were also excluded.
It was planned to randomly allocate R (one 25-mg tablet daily) or identical P to 7000 patients, with half of each group receiving the study drug for 2 or 5 years. Suitable patients were randomly assigned in a double blind fashion to R or P through the VICTOR Trial Office, which supplied drugs to participating hospitals every 6 months. Minimisation was used to balance allocations by stage (II, III), disease site (colon, rectum, recto-sigmoid), age (<50, 50-59, 60-69, 70+) prior adjuvant chemotherapy and radiotherapy.
as §2
The original study was powered to detect a reduction in risk of death between treatments for stage II and stage III separately, (hazard ratio 0.80), with type I error 0.05. The modified statistical plan, after premature closure with 2434 patients, permitted detection of a reduction in risk of death of HR 0.75, 87% power, with type I error 0.05, and one interim analysis specified according to an O'Brien-Fleming alpha-spending rule when there were 350 events. The threshold for statistical significance for OS at this analysis is p<0.01325. OS, the primary endpoint, was measured from randomisation to death from any cause. Secondary endpoints include DFS, measured from randomisation to recurrence or death from any cause and recurrence-free survival, measured from randomisation to recurrence and/or colorectal cancer death. This is the report of the interim analysis, with 368 deaths. Kaplan-Meier curves and log-rank analysis were used for comparisons of OS and DFS. Subgroups were examined using HR plots. […]

## CS(=O)(=O)c1ccc(C2=C(c3ccccc3)C(=O)OC2)cc1 [rofecoxib, 3-phenyl-4-(4(methylsulfonyl)phenyl)-2-(5H)-furanone]
[1]; 1 in P
  Early discontinuation of study drug for hypertension (patients): 7
  Early discontinuation of study drug for renal impairment (patients): 7
  SAE: cardiac failure of unknown aetiology (patients): 4
[1]; 2 in P
  SAE: stable angina (patients): 5
[1]; 3 in P, p=0.05
  SAE: various infections (patients): 10
[1]; 4 in P
  Early discontinuation of study drug for diarrhea (patients): 4
  SAE: cardiac arrhythmias (patients): 3
[1]; 5 in P
  Early discontinuation of study drug for gastrointestinal pain or heartburn (patients): 15
[1]; 15 in P
  Early discontinuation of study drug for analgesia required for arthritis (patients): 4
[1]; 95% CI 0.76-2.94, p=0.24
  Overall total period unadjusted relative risk of cardiovascular thrombotic events: 1.50
[1]; in vivo
  Early discontinuation of study drug for heart failure (patients): 2
  Enhanced cardiovascular adverse event profile: 1-2%
  Other SAEs (depression, neuralgia, polymyositis, epilepsy), frequency: less than 0.2%
  SAE: hypertension (patients): 2
[1]; no significant difference comparing R and P
  Gastro-intestinal SAEs (indigestion/gastroduodenal ulceration, diarrhoea, constipation, obstruction), frequency in patients: less than 1%
[1]; p=0.05
  All-cause SAEs (in words): there was an association with R administration
[1]; treatment period or within 14 days after cessation, 95% CI 1.03-6.86, p=0.04
  Estimated relative risk of cardiovascular thrombotic events: 2.66
[1]; within the treatment period or within 14 days after cessation, 7 in P arm
  Confirmed cardiovascular thrombotic events: 16
[1]; within the two years after the trial closure, eight in P arm
  Further cardiovascular thrombotic events: six
[2]; 0 years from randomisation
  Number of patients still at risk (overall survival, FIG. 5): 1217
[2]; 25 mg daily, intention-to-treat, 1217 vs 1217, 95% CI 0.77 to 1.16, P=0.57
  Hazard ratio (HR) for dying from any cause (overall survival), R compared with P: 0.94
[2]; 1 year from randomisation
  Number of patients still at risk (overall survival, FIG. 5): 1152
[2]; 2 years from randomisation
  Number of patients still at risk (overall survival, FIG. 5): 1012
[2]; 3 years from randomisation
  Number of patients still at risk (overall survival, FIG. 5): 663
[2]; 4 years from randomisation
  Number of patients still at risk (overall survival, FIG. 5): 219
[2]; 5 years from randomisation
  Number of patients still at risk (overall survival, FIG. 5): 21
[2]; 14 in P group
  Number of deaths without recurrent disease: 15
[2]; 95% CI 85.7 to 89.6, P group 86.6
  3-year Kaplan-Meier OS rate: 87.6%
[2]; R vs P, 95% CI 0.75-1.15, p=0.50
  HR for colorectal cancer-specific mortality: 0.93
[2]; each group
  Patient deaths with no reported cause: Five
[2]; over the study period, 191 in placebo group
  Number of deaths: 177
[2]; proportional hazards analysis, 95% CI 0.78-1.17, p=0.64
  HR for dying adjusted for stage, age, radiotherapy group and aspirin use at baseline: 0.95
